# Laboratory results: ChEMBL document CHEMBL1201862, “PubChem BioAssay data set” (2004)
# The source made the active and inactive calls.
# What was measured:
# [1] = test system: Streptococcus sp. 'group A'; assay: growth inhibition of control SK(-) GAS strain, dose response, counter-screen for streptokinase expression inhibitor project, luminescence, kanamycin, BacTiterGlo, confirmation (AID 1900); format: functional, organism-based
# Streptokinase A = target: T1, Streptokinase A (Streptococcus pyogenes serotype M1, UniProt P10520); assay: S. pyogenes streptokinase expression inhibitors, potency, dose response, plasminogen activation absorbance, OD405 (AID 1914); format: functional, Streptococcus pyogenes M1 GAS;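 note: secreted streptokinase activity via plasminogen activation per viability signal from cell pellet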
# T1 sequence (P10520 whole entry): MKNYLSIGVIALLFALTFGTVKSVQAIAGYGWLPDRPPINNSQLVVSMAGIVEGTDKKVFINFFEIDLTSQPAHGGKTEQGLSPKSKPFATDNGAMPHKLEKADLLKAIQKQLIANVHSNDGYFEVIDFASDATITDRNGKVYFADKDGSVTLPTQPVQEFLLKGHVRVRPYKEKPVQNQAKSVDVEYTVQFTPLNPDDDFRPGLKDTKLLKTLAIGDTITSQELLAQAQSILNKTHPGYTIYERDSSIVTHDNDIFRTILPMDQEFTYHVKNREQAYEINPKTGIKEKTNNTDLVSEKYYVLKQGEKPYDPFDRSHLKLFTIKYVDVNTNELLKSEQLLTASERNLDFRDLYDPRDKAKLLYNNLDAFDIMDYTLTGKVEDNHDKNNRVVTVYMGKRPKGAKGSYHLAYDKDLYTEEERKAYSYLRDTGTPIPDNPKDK
# Streptococcus = assay: Group A Streptococcus viability loss, dose response, counter-screen for streptokinase expression inhibitor project, luminescence, BacTiterGlo (AID 1915); format: functional, organism-based;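 note: potency for reduction of bacterial viability or growth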
# [2] = target: T2, Heat shock factor protein 1 (Mus musculus, UniProt P38532); assay: inhibition of MG132-induced HSE-luciferase signal, confirmation, cell-based, NIH3T3, luminescence, dose retest (AID 2382); format: functional;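 note: NIH3T3 fibroblasts with HSF1-driven luciferase reporter stressed by proteasome inhibitor MG132; luminescence from HSF1-driven luciferase expression after 8 hours of MG132 stress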
# T2 sequence (P38532 whole entry): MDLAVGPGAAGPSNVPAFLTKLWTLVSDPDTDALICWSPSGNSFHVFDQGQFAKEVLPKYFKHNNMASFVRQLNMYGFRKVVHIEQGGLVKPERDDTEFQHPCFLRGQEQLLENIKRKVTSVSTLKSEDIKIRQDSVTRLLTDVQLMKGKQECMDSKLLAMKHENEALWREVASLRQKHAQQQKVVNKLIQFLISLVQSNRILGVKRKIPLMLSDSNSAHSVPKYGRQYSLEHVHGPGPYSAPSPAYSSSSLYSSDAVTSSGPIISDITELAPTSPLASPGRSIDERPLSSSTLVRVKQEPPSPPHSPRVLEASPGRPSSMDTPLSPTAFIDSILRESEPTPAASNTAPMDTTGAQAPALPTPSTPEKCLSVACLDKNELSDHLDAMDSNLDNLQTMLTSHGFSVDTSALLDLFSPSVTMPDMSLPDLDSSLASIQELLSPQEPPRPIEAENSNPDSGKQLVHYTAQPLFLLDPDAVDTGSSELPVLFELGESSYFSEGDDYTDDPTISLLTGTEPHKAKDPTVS
# [3] = inhibitors of intracellular T. cruzi replication, confirmation, NIH3T3 host cells, beta-gal luminescence (AID 2044); format: functional, cell-based;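 note: intracellular parasites grown in NIH/3T3 mouse fibroblasts as host cells; luminescent beta-galactosidase reporter signal from transgenic T. cruzi replicating inside host cells; inhibitors lower the luminescence signal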
# [4] = cytotoxicity toward NIH3T3 fibroblasts, dose response, counter-screen, cell-based, ATP luminescence, mouse fibroblasts (AID 2010); format: functional;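 note: cells exposed to compound for about 90 hours before reading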
# [5] = Luminescence Cell-Based Dose Retest to Confirm Inhibitors of Cancer Stem Cells. [Related pubchem assays (depositor defined):AID2717, AID2721]; format: functional; details: Homo sapiens
# Cytochrome P450 2C19 = Cytochrome P450 2C19 (Homo sapiens, UniProt P33261); assay: Cytochrome panel assay with activity outcomes. Panel member name: p450-cyp2c19 Compounds with AC50 equal or less than 10 uM are considered active; format: functional
# [6] = inhibitors of firefly luciferase expression or activity, dose response, H4 neuroglioma cells, luminescence (AID 1990); format: functional, cell-based
# [7] = Luminescence Cell-Based Dose Response HTS to Identify Inhibitors of 5'UTR Stem-Loop Driven Prion Protein mRNA Translation in H4 Neuroglioblastoma Cells. [Related pubchem assays: 1827 (Project Summary), 1813 (Primary HTS)]; format: functional
# [8] = inhibitors of SNCA 5'UTR-driven reporter translation, confirmation, H4 neuroglioma cells, luminescence (AID 1988); format: functional, cell-based
# Cytochrome P450 2C19, sequence (P33261 whole entry): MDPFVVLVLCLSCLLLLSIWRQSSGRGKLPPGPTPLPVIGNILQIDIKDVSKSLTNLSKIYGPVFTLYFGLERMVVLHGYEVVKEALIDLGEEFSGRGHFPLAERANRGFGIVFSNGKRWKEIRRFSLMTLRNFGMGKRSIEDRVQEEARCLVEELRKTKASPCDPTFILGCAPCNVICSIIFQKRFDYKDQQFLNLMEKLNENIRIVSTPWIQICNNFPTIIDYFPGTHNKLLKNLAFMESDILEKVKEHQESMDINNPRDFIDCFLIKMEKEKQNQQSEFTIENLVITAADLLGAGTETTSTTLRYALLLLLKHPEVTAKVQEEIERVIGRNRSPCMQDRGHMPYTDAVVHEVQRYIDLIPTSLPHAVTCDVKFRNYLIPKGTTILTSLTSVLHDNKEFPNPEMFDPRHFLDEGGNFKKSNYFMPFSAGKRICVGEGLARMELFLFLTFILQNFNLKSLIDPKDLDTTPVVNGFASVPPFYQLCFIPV
SMILES,EC50 [2],EC50 [3],EC50 [4],also measured
O=C(OCc1ccc(COC(=O)c2ccc(O)cc2)cc1)c1ccc(O)cc1,–,–,–,EC50 [1]: 5.67 µM (active); EC50 (Streptokinase A): > 150 µM (not active); EC50 (Streptococcus): 8.51 µM (active)
O=C(NCc1ccco1)C1CCN(S(=O)(=O)c2cccc([N+](=O)[O-])c2)CC1,> 195 µM (not active),–,–,–
COc1ccc([C@@H]2C[C@@H](c3ccccc3)Oc3c(C)ccc(C(C)C)c32)cc1,> 195 µM (not active),–,–,–
CCCCCSc1nc(C)c(CC(=O)O)c(O)n1,> 195 µM (not active),–,–,–
Cc1ccc(CCNC(=O)CN=C(S)N(Cc2ccccc2)Cc2cccnc2)cc1,–,1.28 µM (active),> 60 µM (not active),–
COc1cc(C(=O)N2CCN(C(=O)CC(C)C)CC2)cc(OC)c1OC,9.31 µM (active),–,–,–
COc1ccc(OC)c(NC(=O)C2CCCN(S(=O)(=O)c3c(C)nn(C)c3C)C2)c1 (centres undefined),> 195 µM (not active),–,–,–
Cc1ccc2nc3c(cc(S(=O)(=O)c4ccccc4)c(=N)n3Cc3ccco3)c(=O)n2c1,–,3 µM (active),> 60 µM (not active),–
COc1cc(CNc2ccc(CNc3nc[nH]n3)cc2)ccc1OCc1ccccc1,–,–,–,AC50 [5]: 2.25 µM (active)
C[C@@]12CC[C@H](O)C[C@@H]1CC[C@H]1[C@@H]2C[C@@H](O)[C@]2(C)[C@@H](C3=CC(=O)OC3)CC[C@]12O,–,–,–,AC50 (Cytochrome P450 2C19): inconclusive
Cc1ccc(OCC(=O)Nc2ccccc2C(=O)N2CCCCC2)cc1,> 195 µM (not active),–,–,–
CCC(C)n1c(C)nc2c(c1=O)c1nc3ccccc3nc1n2CCC1=CCCCC1 (centres undefined),–,3.7 µM (active),> 60 µM (not active),–
CC(C)(CNC(=O)c1ccccc1)CNC1=NS(=O)(=O)c2ccccc21,–,–,–,EC50 [1]: > 150 µM (not active); EC50 (Streptokinase A): > 150 µM (not active); EC50 (Streptococcus): > 150 µM (not active)
CC1CCCN(CC(O)COCC2COc3ccccc3O2)C1 (centres undefined),–,–,–,AC50 (Cytochrome P450 2C19; read-out: AC50): 5.01 µM (inconclusive)
COc1ccc(C(=O)C2CCCN(Cc3sc(N4CCCC4)nc3Cl)C2)c(OC)c1 (centres undefined),–,0.927 µM (active),> 60 µM (not active),–
CCCOC(=O)c1ccc(Oc2c(-c3ccc(OCC)cc3O)n[nH]c2C)cc1,–,–,–,EC50 (Streptokinase A): > 150 µM (not active)
Cc1cc(C)cc(N2C(=O)CN(Cc3ccccc3)C2=S)c1,> 195 µM (not active),–,–,–
CCCOc1ccc(Cn2c(=O)oc3ccc(C)cc32)cc1OC,> 195 µM (not active),–,–,–
Cc1ccc(OCCCCN2CCCCC2)c(Br)c1,–,2.16 µM (active),> 60 µM (not active),–

SMILES,EC50 [2],EC50 [3],EC50 [4],also measured
Cc1ccc(-n2nc3c(N4CCC(C(=O)NCCc5cccs5)CC4)nnc(C)c3c2C)cc1,–,–,–,EC50 [6]: 19.2 µM (active); EC50 [7]: > 120 µM (not active)
CCc1c(-c2ccccc2)nc2sc3c(c2c1N)CCCC3,–,2.01 µM (active),> 60 µM (not active),–
COc1ccc(-c2csc(N(CCc3ccc(OC)c(OC)c3)C(=O)COc3ccccc3)n2)cc1,> 195 µM (not active),–,–,–
O=C(O)c1ccc(Cl)c(S(=O)(=O)N(Cc2ccccc2)c2ccc(F)cc2)c1,–,–,–,AC50 [5]: 31.2 µM (active)
CCC(C)Oc1cc(-c2ccnc(Nc3cccc(Cl)c3)n2)ccn1 (centres undefined),–,1.7 µM (active),7.53 µM (active),–
CC(C)CCNC(=O)C1CCC(CNS(=O)(=O)c2cccc3nsnc23)CC1 (centres undefined),–,> 30 µM (not active),> 30 µM (not active),–
Cc1ccc(C(C)C)c(OCC(=O)NC2CCN(C)CC2)c1,–,1.21 µM (active),> 60 µM (not active),–
CC1C=Cc2ccccc2N1C(=O)c1ccccc1 (centres undefined),> 195 µM (not active),–,–,–
CC(C)Oc1cccc(C(=O)NC(=S)Nc2ccccc2)c1,> 195 µM (not active),–,–,–
O=C(c1cccc(S(=O)(=O)N2CCOCC2)c1)N(Cc1nnc(-c2ccccc2Cl)o1)C1CC1,> 195 µM (not active),–,–,–
CCN=C(S)NC1CC2CCCC(C1)N2Cc1ccco1 (centres undefined),–,–,–,AC50 (Cytochrome P450 2C19; read-out: AC50): 14.1 µM (inconclusive)
CCOC(=O)C1(Cc2ccccc2)CCCN(CCCn2cccn2)C1 (centres undefined),> 195 µM (not active),–,–,–
O=C(Nc1cccc(S(=O)(=O)c2cccc(NC(=O)c3ccco3)c2)c1)c1ccco1,–,0.869 µM (active),> 60 µM (not active),–
CN(Cc1ccccc1)Cc1c[nH]c2ccccc12,–,0.972 µM (active),> 60 µM (not active),–
CCCc1nc2ccccc2c(C(=O)OCC(=O)Nc2ccc(S(=O)(=O)N3CCOCC3)cc2)c1CC,–,–,–,EC50 [1]: 18.1 µM (active); EC50 (Streptokinase A): 26 µM (active); EC50 (Streptococcus): 52.8 µM (active); AC50 [5]: 4.04 µM (active)
Cc1cc2c(c(=O)n1Cc1ccc3c(c1)OCO3)C(c1cccnc1)C(C#N)=C(N)O2 (centres undefined),–,1.94 µM (active),> 60 µM (not active),–
c1ccc(CCn2nnnc2C(c2cccnc2)N2CCN(c3ccccc3)CC2)cc1 (centres undefined),–,0.263 µM (active),4.77 µM (active),–
COc1ccc(/C=C/C(=O)c2ccccc2)cc1Cn1nnc2ccccc21,–,–,–,AC50 [5]: 4.11 µM (active)
N#C/C(=C(/O)COc1ccccc1)c1nc2ccccc2s1,–,–,–,EC50 [1]: 26.7 µM (active); EC50 (Streptokinase A): 7.55 µM (active); EC50 (Streptococcus): > 150 µM (not active)

SMILES,EC50 [2],EC50 [3],EC50 [4],also measured
CC(=O)c1cccc(NC(=O)C2CC(=O)N(CCc3ccccc3)C2)c1 (centres undefined),> 195 µM (not active),–,–,–
COc1ccc2nc(N=C(N)N=C(S)Nc3c(C)cccc3C)nc(C)c2c1,–,–,–,EC50 [1]: 21.7 µM (active); EC50 (Streptococcus): > 150 µM (not active)
COc1ccc2nc(N=C(N)NC(=S)Nc3c(C)cccc3C)nc(C)c2c1,–,–,–,EC50 (Streptokinase A): 42 µM (inconclusive)
Cc1cc(Nc2nc(Cl)c(Cl)cc2Cl)n(-c2ccccc2)n1,–,–,–,AC50 [5]: 3.95 µM (active)
Cc1ccc(NC(=O)N(Cc2cccnc2)Cc2ccco2)cc1C,–,1.39 µM (active),> 60 µM (not active),–
COc1ccc(CNC(=O)CCCNC(=O)c2ccc(Cl)cc2)cc1OC,> 195 µM (not active),–,–,–
COc1ccc(OC)c(N(CC(=O)Nc2ccccc2)S(C)(=O)=O)c1,> 195 µM (not active),–,–,–
CC(C)c1ccccc1OCC(O)CN(CC(O)COc1cccc2ccccc12)C(C)C (centres undefined),–,3.45 µM (active),> 30 µM (not active),EC50 [1]: 4.05 µM (active); EC50 (Streptococcus): 7.04 µM (active); AC50 [5]: 2.82 µM (active)
Cn1c(CCC(=O)Nc2ccc(N3CCOCC3)cc2)nc(=O)c2ccccc21,–,–,–,AC50 (Cytochrome P450 2C19; read-out: AC50): 35.5 µM (inconclusive)
c1cnc2ccc(C(c3nnnn3C3CCCCC3)N3CCN(C4CCCCC4)CC3)cc2c1 (centres undefined),–,8.47 µM (active),4.37 µM (active),–
O=C(Nc1cccc(Cl)c1)Nc1ccccc1-n1ccnc1,–,0.461 µM (active),> 60 µM (not active),–
Cc1ccc2c(c1)C1CN(C)CCC1N2C(=O)c1cccc(S(=O)(=O)N2CC(C)CC(C)C2)c1 (centres undefined),–,0.216 µM (active),> 30 µM (not active),–
Cc1ccc(S(=O)(=O)N(C)c2ccc(OCc3cccc(C)c3)cc2)cc1,–,–,–,AC50 [5]: 0.898 µM (active)
CC(C)c1ccc2c(c1)c(SC(C)(C)C)c(CC(C)(C)C(=O)O)n2Cc1ccc(Cl)cc1,–,–,–,EC50 [1]: 1.07 µM (active); EC50 (Streptokinase A): 1.24 µM (active)
NC(=O)N/N=C/c1ccc2cccc(OCc3ccccc3)c2n1,–,–,–,EC50 [6]: 17.8 µM (active); EC50 [7]: > 120 µM (not active); EC50 [8]: 61 µM (active)
C/C(=N\NC(=O)CN1CCN(Cc2ccccc2)CC1)c1cccs1,> 195 µM (not active),–,–,–
Fc1ccc(CO/N=C/C2=C(Cl)c3ccccc3CC2)cc1,> 195 µM (not active),–,–,EC50 [1]: 6.39 µM (active); EC50 (Streptokinase A): 13.5 µM (active); EC50 (Streptococcus): > 150 µM (not active)
CCO/C(O)=C(/C=N/c1ccccc1)[N+](=O)[O-],–,–,–,AC50 (Cytochrome P450 2C19; read-out: AC50): 14.1 µM (inconclusive)
